Laboratory results published in US10123998B2, “Kinase modulation, and indications therefor” (Plexxikon Inc., priority 2012, dated 2018).

Tests used:
[1] = tested on: Osteoclast precursor cells; assay: Osteoclast differentiation assay; type: cell-based
Method: Further, an osteoclast differentiation assay is used to assess the efficacy of Fms inhibitors for treating bone disease such as osteoarthritis. On day 0, Osteoclast Medium BulletKit (Lonza catalog # PT-8001, containing Media, FBS, L-Glutamine, PenStrep, RANKL, and M-CSF) media is thawed and the FBS, L-glutamine and PenStrep from the kit is added to 100 mL of Osteoclast Precursor Basal medium to provide the Osteoclast Precursor Growth Medium (OPGM). This is warmed to 37° C. Osteoclast precursor cells (Lonza catalog #2T-110) frozen in cryovial are warmed to 37° C. and transferred to a 50 mL conical tube. The cryovial is rinsed with OPGM and added dropwise to the conical tube of cells with swirling, then the volume is adjusted to 20-30 mL with addition of OPGM. The cells are centrifuged at 200×g for 15 minutes at room temperature and all but approximately 3 mL of supernatant is removed to a new conical tube. The cells are suspended in the remaining supernatant and the volume is adjusted to 10-15 mL with OPGM added dropwise with swirling. The cells are centrifuged at 200×g for 15 minutes at room temperature and all but approximately 1 mL of supernatant is removed. The cells are resuspended in the remaining supernatant, counted, and the volume adjusted with an appropriate amount of OPGM to provide approximately 1×10^5 cells/mL. A 0.1 mL aliquot of cells is added to each well of a 96-well plate. Compound to be tested is prepared in DMSO for plating at a high concentration of 2.5 mM, with 8 point 1:3 serial dilutions. A 1 μL aliquot of each compound dilution is added to a 96 well v-bottom polypropylene plate and 0.124 mL of OPGM is added to the compound. Then 50 μL of the compound in OPGM is added to the osteoclast precursor cells in 96-well plate (providing highest test concentration of 5 μM). RANKL (2 μg) from the BulletKit is reconstituted in 1 mL of OPGM, then vortexed and centrifuged briefly. A 792 μL aliquot of RANKL is added to 6 mL of OPGM and 50 μL is added to low control wells. Then 76.6 μL M-CSF ([…]) from the BulletKit is added to the remaining 5.8 mL of OPGM/RANKL solution (4×RANKL/M-CSF/OPGM). A 50 μL aliquot of this is added to the remaining wells, and the remainder is stored at 4° C. for later use. The plate is incubated at 37° C. for 6 days, then the remaining OPGM/RANKL/M-CSF solution is warmed to 37° C. The remaining approximately 198 μL is combined with 6 mL of OPGM. The media is aspirated from the osteoclast wells and 100 μL of RANKL/OPGM is added to the low controls. The remaining RANKL/OPGM is combined with the approximately 18.5 μL of remaining M-CSF. The remaining 4×RANKL/M-CSF/OPGM from day 0 is diluted to 1× and combined with the freshly prepared solution. A 0.1 mL aliquot of this is added to each osteoclast well and incubated for 37° C. for 1 day. The Acid Phosphatase kit (Cayman Chemical catalog #10008051) is warmed to room temperature. The assay buffer is diluted 5 mL with 45 mL of water. For each plate, two substrate tablets are dissolved in 4.5 mL of the assay buffer, mixing by vortex to break up the tablet. Stop solution is diluted 12 mL with 36 mL of water. In a tissue culture hood, 20 μL of each osteoclast well supernatant is transferred to a 96 well plate. A 30 μL aliquot of the substrate solution is added to each well and incubated at 37° C. for 20 minutes, then added […] stop solution to each well. The absorbance of each well is read at 405 nm on Safire plate reader. The absorbance reading is plotted vs. concentration to provide the IC50 for each compound.

[2] = tested on: PLP139-151-induced relapsing-remitting EAE; assay: PLP139-151-induced relapsing-remitting EAE; design: species or system SJL mice; conditions: mouse, in vivo
Method: Method: CSF-1R inhibitors as described herein were tested in mouse relapsing-remitting multiple sclerosis (MS) model. […] Female […] mice 6 weeks old were purchased from Harlan and maintained for 1 week prior to beginning the experiment. Mice were randomly assigned into groups of 10 animals (plus the additional mice per group to be used for histology), and primed with 50 μg PLP139-151/CFA on Day 0. On Day 16-20 post disease induction (onset of remission), the experimental compounds in dose groups 2 and 3 were administered daily via gavage to the groups for a period of 3 weeks (with the final treatment on ˜Day 37-41 post disease induction). On Day 10 post disease induction (disease onset) treatment of group 4 began, and continued to the same day as groups 2 and 3 (˜Day 37-41 post disease induction). After administration of the test compounds, the mice were followed until Day 45 to assess clinical disease, delayed type hypersensitivity (DTH), and various in vitro immunological assays. Histological signs of disease at various time points during the disease course were also assessed. […]

**Q.** With COc1ncc(F)cc1CNc1ccc(Cc2c[nH]c3ncc(C#N)cc23)c(F)n1 [Compound P-2193, 3-{2-Fluoro-6-[(5-fluoro-2-methoxy-pyridin-3-ylmethyl)-amino]-pyridin-3-ylmethyl}-1H-pyrrolo[2,3-b]pyridine-5-carbonitrile] as the compound, how does the IC50 [1] read?
**A.** The IC50 was < 100 nM.

**Q.** With CCCCCCCCc1ccc(CCC(N)(CO)CO)cc1 [FTY-720] as the compound, how does the “clinical scores after discontinuation of therapy” value [2] read?
**A.** The value was “rapid rebound of clinical scores”.
